Experimental data taken from patent US11230688B2, “In vitro gastrointestinal model comprising lamina propria-derived cells” (EMULATE, Inc., priority 2016, dated 2022).
Where two headings read alike, the source gives them in different places.

Key:
[1] = system: Intestine On-Chip with TH1 or TH9 populations; experiment: Intestine On-Chip seeded with plate-differentiated TH1 or TH9 cells, soluble reagents: cytokine production and gene expression; format: cell-based, human; details: for IL-10 secretion: TH9 populations
From the text: Experiments were designed to evaluate whether anti-CD3 and anti-CD28 co-stimulatory activation (soluble reagents) on chip would stimulate on chip T cells (previously activated and differentiated on plates) to continue functioning as activated effector cells within the chip tissue microenvironment. Further, TH1 and TH9 T cell populations underwent testing for an exacerbated response (either tissue alterations or changes in the characteristics of the T cell population) to a specific antigen stimulation, e.g. PAM2CSK4 (TLR2) bacterial agonist, with or without additional co-stimulation (i.e. using soluble reagents). Stimulation on-chip was done as a treatment on Day 7 of culture.
In this example, a TH1 cell population was produced from a population of mature/naive CD4+ T cells, as described in Example 7. This population of CD4+ T cells were co-stimulated with adhered CD3 and soluble CD28 antibodies, without added cytokines, for inducing differentiation of TH1 cells on plates. Unlike co-stimulation with adhered CD3 and soluble CD28 antibodies in the presence of TGFB IL-4, and IFNg cytokines which induced differentiation of TH9 cells, as described herein. Thus, in this example, purified CD4+ T cell populations were plated into tissue culture plates for activation and differentiation into one selected T cell subtype, e.g. TH1 in one plate, and TH9 in another plate.
In order to further test whether PBMCs activated and differentiated with soluble factors were capable of inducing inflammation on chips, pro-inflammatory cytokine production was compared between untreated, PAM2CSK4 treated with and without Tofacitinib. […]
Evaluation of the effects of T-cell activation on the Intestine On-Chip by perfusion of soluble immune activating factors (anti-CD3 and anti-CD2) to the media is shown in FIGS. 36A-B-39A-C. In particular, activated T-cell subsets were evaluated for disease-specific cytokine production.

[2] = system: Caco-2 epithelial cell layer
From the text: (§1) This permeability assay method for adsorption across a gut wall, i.e. caco-2 cells in a gut-on-chip, measures the rate of transport of a test compound added to the basal side of the membrane, for example, inulin-FITC, across to the apical side. […] Conversely, adding a test compound to the apical side may also be used to measure transport to the basal side.
(§2) The Gut-On-Chip modeling of inflammation was used for testing bacterial antigen effects on barrier function and cytokine production. An exemplary bacteria antigen used was PAM2CSK4. […] PAM2CSK4 refers to a synthetic diacylated lipopeptide.
(§3) A co-culture configured as described herein was incubated in a device of the present inventions as described in FIG. 7.
(§4) Cultivation of Caco-2 cells in microfluidic device: Caco-2 cell monolayers were seeded as described herein. Basal regions of cells were exposed to medium under flow. […] Experimental procedure: Cells were used for this experiment between days 7 and 9 post seeding. Donor solutions (including a 100 μg/ml Inulin-FITC) were prepared, and solutions used in this experiment were prewarmed to 37° C. Inulin-FITC was used as an indicator for the determination of the monolayer integrity. […] Inulin-FITC method: 6 mM Inulin-FITC may be added into an apical region of a monolayer; and incubated for 1 hr. A standard curve may be prepared in a separate container, e.g. a 0.5 to 50 μM; HBSS blank containing 1 to 0.5% DMS0 is placed in wells; Aliquots of 200 μl are transferred from the separate container to a solid black plate; Aliquots of 50 μl are transferred from the device to a solid black plate containing 50 μl HBSS with 1-0.5% DMSO; Plates may be read in a fluorescent reader (Excitation/Emission wavelength 480/530 nm); LY rejection (Pc) values are calculated. V. Molecule transport assay: Transport of a molecule across the monolayer may also be determined; a test compound may be added at the apical region of the monolayer then removed from the apical and/or basal media then analyzed using LC-MS method for loss (e.g. apical region) or gain (e.g. basal region).
(§5) Microfluidic co-cultures with HUVEC cells in the bottom chamber, LPDCs from human non-inflamed regions of UC tissue biopsies, LPDCs from UC inflamed tissue biopsies, and samples with no LPDCs, were overlaid with Caco-2 epithelial cell layers.

[3] = system: Caco-2 epithelial cell layer; experiment: Gut-On-Chip barrier function (apparent permeability, Papp) with lamina propria-derived cells; details: for Loss of barrier function: PAM2CSK4, overnight incubation
From the text: as §1, §2, §3, §4, §5

[4] = system: resident immune cells from healthy and UC patient LP tissue; experiment: Secreted cytokine production of resident immune cells cultured on plates, 24 hour bacterial challenge; format: cell-based, human; details: immune cells from inflamed UC tissue
[5] = system: microfluidic co-cultures of Caco-2 epithelial cells, HUVECs and LPDCs; experiment: Gut-On-Chip cytokine and chemokine production in co-cultures with lamina propria-derived cells; format: cell-based, human
[6] = system: TH1 and TH9 CD4+ T cell populations; experiment: On-plate bacterial antigen stimulation of differentiated CD4+ T cell subsets (cytokines, IL-9 activation factors); format: cell-based, human
From the text: In this example, a TH1 cell population was produced from a population of CD4+ T cells obtained from a sample of PBMCs. This population of CD4+ T cells were co-stimulated with soluble CD3 and CD28 antibodies without added cytokine stimulation for inducing differentiation of TH1 cells. Unlike the co-stimulation with soluble CD3 and CD28 antibodies in the presence of TGFB, IL-4, and IFNg cytokines for inducing differentiation of TH9 cells as described herein.
Thus, in this example, purified CD4+ T cell populations were plated into tissue culture plates for activation and differentiation into one selected T cell subtype, e.g. Th1 in one plate, and Th2 in another plate.
A sample of each TH cell type was exposed to PAM2CSK4, then log 2 fold changes in protein expression of either pathway molecules or IL-9 were measured and compared to duplicate samples not treated with PAM2CSK4.

[7] = system: microfluidic co-cultures of Caco-2 epithelial cells, HUVECs and LPDCs; experiment: Gut-On-Chip cytokine and chemokine production in co-cultures with lamina propria-derived cells; format: cell-based, human; remark: listed apart in the source
Procedure: An exemplary bacteria antigen used was PAM2CSK4. […] PAM2CSK4 refers to a synthetic diacylated lipopeptide.
In order to determine contributory factors to the trends in permeability changes observed by combinations of prednisone treatments as in Example 5, cytokine and chemokine production were measured from media samples obtained from the microfluidic cultures as described in EXAMPLE 5. After an incubation time, media samples were extracted from the microfluidic device then used for determining amounts cytokine and chemokine produced, such as IL-6 and IL-9 in FIG. 18A-B; IL-8 and G-CSF in FIG. 19A-B; GM-CSF and MCP-1 in FIG. 20A-B; MIP1b and PDGF-AB/BB in FIG. 21A-B; and RANTES in FIG. 22. Amounts of cytokine and chemokine protein are measure in pg/ml (picogram per milliliter).

Ulcerative Colitis = details: cited from earlier work
[8] = Prednisone alone, non-inflamed LPDC cultures
[9] = prednisone, inflamed LPDCs, with and without PAM2CSK4
[10] = prednisone, non-inflamed and inflamed LPDCs treated with PAM2CSK4

From the text for Caco-2 epithelial layer: The chips treated with PAM2CSK4 as a model bacterial antigen are considered infected chips.

For Tofacitinib (citrate), the IL-10 secretion ([1]; mixture of PAM2CSK4 and Tofacitinib vs unstimulated) was “induced significant amounts”.

With PAM2CSK4 the “Permeability (Papp)” value [2] was “show an increase in permeability”, the “Loss of barrier function” value ([3]; 4 LP mil/ml) was “Loss of barrier function is shown” and the “Loss of barrier function” value ([3]; LP 1 mil/ml or LP 2 mil/ml) was “not at LP 1 mil/ml or LP 2 mil/ml”. The “Avg. Z Height of Caco-2 epithelial layer” value (Caco-2 epithelial layer) was 84 um+/−11, the “Response to TLR2 activation (secreted TNF alpha, IL-6, IL-8)” value [4] was “stronger response” and the “Basal IL-9 cytokine secretion” value ([5]; 4 LP mil/ml, basal areas) was “induced a higher level of IL-9 production”. The “Apical IL-9 cytokine secretion” value ([5]; apical regions, 1 and 2 LP mil/ml) was “increased with PAM2CSK4 treatment”, the “GATA3 and SPI1 (log 2 fold change)” value ([6]; PAM2CSK4, TH1 populations) was “not GATA3 car SPI11” and the “IL-9 mRNA concentrations” value ([6]; PAM2CSK4, TH1 populations) was “did significantly increase”. For the same compound, the “IRF4 and IL-9 (log 2 fold change)” value ([6]; PAM2CSK4, TH1 populations) was “produce measurable IRF4 and IL-9”, the “IL-9 and IL-9 activation factors (log 2 fold changes)” value ([6]; PAM2CSK4, TH9 populations in tissue culture plate) was “did not significantly increase IL-9” and the “Cytokine protein expression post differentiation” value ([6]; soluble PAM2CSK4, TH1 (CD) and TH9 (UC) cells on-plates) was “increases in the concentration of protein signaling”. The IL-10 secretion ([1]; Pam stimulated vs unstimulated) was “no insignificant differences”, the IL-8 ([1]; antigen specific stimulation (TLR2 agonist) on activated TH1 and TH9 chips) was “increased” and the IL-6 production ([7]; 1, 2 and 4 LP mil/ml, versus co-cultures with no PAM2CSK4) was “induced a higher level of IL-6 production”. For the same compound, the IL-9 production ([7]; LP leukocyte co-cultures for each source (healthy, UC non-inflamed, UC inflamed)) was “induce IL-9”, the IL-6 production ([7]; PAM2CSK4, inflamed LPDC samples) was “increased IL-6 production” and the IL-6 production ([7]; PAM2CSK4, non-inflamed LPDC samples) was “not with the non-inflamed LPDC samples”. The IL-9 production ([7]; PAM2CSK4, non-inflamed and inflamed LPDC co-cultures, over endogenous levels) was “significantly induced IL-9 production”, the “Apical IL-9 cytokine secretion” value ([7]; apical regions, 4 LP mil/ml) was “not at 4 LP mil/ml” and the IL-9 production ([7]; epithelial cells without LP cells) was “not in epithelial cells without LP cells”. For the same compound, the IL-6 production ([7]; healthy LP leukocyte co-cultures and epithelial cells without LP) was “induce an IL6 response”.

In the case of `C[C@]12C=CC(=O)C=C1CC[C@@H]1[C@@H]2C(=O)C[C@@]2(C)[C@H]1CC[C@]2(O)C(=O)CO` [prednisone], the treated patients non-responsive (Ulcerative Colitis) is listed as “around 16%”, the “treated patients with full remission” value (Ulcerative Colitis) is listed as ~54% and the “treated patients with partial remission” value (Ulcerative Colitis) is listed as ~30%. For the same compound, the “Permeability (Papp)” value ([3]; FIG. 17A, prednisone, at least one patient sample of non-inflamed LPDCs) was “some benefit in reducing permeability”, the “Permeability (Papp)” value ([3]; FIG. 17A, prednisone, at least one patient sample with inflamed UC LPDC) was “undesirable increase” and the “Permeability (Papp)” value ([3]; FIG. 17B, overnight, prednisone, inflamed UC LPDCs) was “did not induce an increase in permeability”. For the same compound, the “Permeability (Papp)” value ([3]; FIG. 17B, overnight, prednisone, non-inflamed UC LPDC) was “undesirable increase in permeability”, the “Permeability (Papp)” value ([3]; overnight, prednisone, inflamed UC LPDC samples) was “both an increase and a decrease in permeability” and the “Permeability (Papp)” value ([3]; prednisone and PAM2CSK4, inflamed UC LPDC) was “little benefit”. For the same compound, the “Permeability (Papp)” value ([3]; prednisone and PAM2CSK4, non-inflamed UC LPDC) was “range of responses”, the “Permeability (Papp), trend” value ([3]; prednisone and bacterial antigen) was “trend for decreasing permeability” and the “Permeability (Papp), trend” value ([3]; prednisone, inflamed UC LPDC) was “little difference from the non-inflamed LPDC sample”. For the same compound, the “Permeability (Papp), trend” value ([3]; prednisone, non-inflamed UC LPDC) was “increased permeability”, the “Permeability (Papp), effect on average” value ([3]; prednisone, non-inflamed or inflamed UC LPDC) was “no significant effect” and the PDGF-AA/BB production ([7]; Prednisone alone) was “did not appear to be a reduction in PDGF-AA/BB”. The GM-CSF production [7, 8] was “did not appear to be a reduction in GM-CSF”, the MCP-1 production [7, 8] was “did not appear to be a reduction in MCP-1” and the IL-8 production ([7]; non-inflamed LPDC cultures, Prednisone alone or PAM2CSK4) was “did not appear to be a reduction in IL-8”. The IL-9 production ([7]; prednisone on PAM2CSK4-increased IL-9) was “significantly reduced”, the IL-6 production ([7]; prednisone, inflamed LPDCs, endogenous or induced by PAM2CSK4) was “reduce IL-6 production” and the GM-CSF production [7, 9] was “reduced GM-CSF production”. The IL-8 production [7, 9] was “trend for reducing IL-8 production”, the MCP-1 production [7, 9] was “reduced MCP-1 production” and the IL-6 production ([7]; prednisone, non-inflamed LPDCs) was “does not appear to have an effect”. The PDGF-AA/BB production ([7]; prednisone, non-inflamed LPDCs) was “trend for reducing PDGF-AA/BB production”, the PDGF-AA/BB production [7, 10] was “trend for reducing PDGF-AA/BB production” and the RANTES production [7, 10] was “trend for reducing RANTES production”. For the same compound, the IL-9 production ([7]; prednisone, non-inflamed and inflamed UC LPDC, regardless of PAM2CSK4) was “reduced”, the G-CSF production ([7]; prednisone, non-inflamed or inflamed LPDCs, with and without PAM2CSK4) was “trend for reducing G-CSF production” and the “Inflammatory responses (secreted cytokine production) to PAM2CSK4 treatment” value ([7]; prophylactic prednisone, UC patient's resident immune cells, noninflamed and inflamed tissues) was “suppresses the inflammatory responses”.
